Experimental findings from US11254640B2, “N-substituted indoles and other heterocycles for treating brain disorders” (The Regents of the University of California, priority 2019, dated 2022) are described below.

By EC50 is commonly meant the concentration that produces a half-maximal response.

What all share (assay type): cell-based
Assay [1] concerns 5HT2A sensor. Put plainly: 5HT2A sensor assay, antagonist mode (sLight1.3s HEK293T stable line). To be noted: relative to 5-HT at 100 nM; for 5HT2A Antagonist mean @ 100 nM (%): 100 nM compound; for 5HT2A Antagonist mean @ 10 μM (%): 10 μM compound; for 5HT2A Antagonist mean @ 100 μM (%): 100 μM compound. The gist of the method:
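Inactivation score is computed from membrane dFF as (dFF(compound+5HT)−dFF(5HT))/dFF(5HT), with HBSS-only fluorescence as Fapo. Final concentrations: 5-HT 100 nM added first, then compound at 100 nM, 10 μM or 100 μM in 0.1% DMSO. Triplicates; FITC imaging, 5 fields per well.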

The target in assay [2] is T1, 5HT2A (Homo sapiens, UniProt P28223).
T1 construct: expressed in transfected cells
T1 sequence (P28223 whole entry): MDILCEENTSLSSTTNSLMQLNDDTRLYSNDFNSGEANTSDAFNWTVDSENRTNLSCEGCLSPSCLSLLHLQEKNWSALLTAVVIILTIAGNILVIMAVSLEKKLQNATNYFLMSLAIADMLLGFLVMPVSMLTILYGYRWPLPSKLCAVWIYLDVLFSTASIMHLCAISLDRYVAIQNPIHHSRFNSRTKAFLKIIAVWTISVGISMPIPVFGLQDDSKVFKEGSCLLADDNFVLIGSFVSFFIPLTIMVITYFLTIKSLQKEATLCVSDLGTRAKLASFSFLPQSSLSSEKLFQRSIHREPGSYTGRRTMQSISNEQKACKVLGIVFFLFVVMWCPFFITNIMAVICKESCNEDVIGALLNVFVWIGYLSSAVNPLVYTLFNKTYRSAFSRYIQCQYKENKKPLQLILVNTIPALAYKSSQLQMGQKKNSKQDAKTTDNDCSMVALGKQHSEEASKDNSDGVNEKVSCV
As to the kind of experiment: Calcium flux assay (Calcium secondary messenger pathway). To be noted: agonist mode. The gist of the method: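 Gq-coupled calcium mobilization in cells stably expressing 5HT2A, loaded 30–60 min at 37 °C with calcium-sensitive dye in HBSS/20 mM Hepes with 2.5 mM probenecid. Compound added 5 s into a 2-min FLIPR Tetra fluorescence read at room temperature; % activity relative to vehicle and maximal control-ligand RFU.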
On the technique in general: Calcium flux is commonly read through the fluorescence of an indicator in the cells.

Assay [3] concerns 5HT2A sensor. As to the kind of experiment: 5HT2A sensor assay, agonist mode (sLight1.3s HEK293T stable line). To be noted: percent relative to 5-HT at 100 uM; for 5HT2A Agonist mean @ 100 nM (%): 100 nM compound; for 5HT2A Agonist mean @ 10 μM (%): 10 μM compound; for 5HT2A Agonist mean @ 100 μM (%): 100 μM compound. The gist of the method: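 Fluorescence change, dFF=(Fsat−Fapo)/Fapo, was taken from membrane images (460 nm excitation) before and after compound addition and scaled as % activation, with the DMSO mean as 0 and the 5HT mean as 100. The cells were sLight1.3s HEK293T in HBSS. Final compound levels were 100 μM, 10 μM and 100 nM in 0.1% DMSO, in triplicate.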

With `COc1cccc2c1ccn2CCN(C)C.O=C(O)/C=C/C(=O)O` [Example 3, 2-(4-methoxy-1H-indol-1-yl)-N,N-dimethylethan-1-amine], in assay [1], the “5HT2A Antagonist mean @ 100 nM (%)” value is on record as “A (inhibits 5HT response by >100%)”, the “5HT2A Antagonist mean @ 10 μM (%)” value is reported as “A (inhibits 5HT response by >100%)” and the “5HT2A Antagonist mean @ 100 μM (%)” value is “A (inhibits 5HT response by >100%)”. Further, the 50% effective concentration (EC50) in assay [2] is more than 10 µM. Besides, in assay [3], the “5HT2A Agonist mean @ 100 nM (%)” value is “B (does not activate 5HT2A sensor assay in agonist mode)”, the “5HT2A Agonist mean @ 10 μM (%)” value is given as “B (does not activate 5HT2A sensor assay in agonist mode)” and the “5HT2A Agonist mean @ 100 μM (%)” value is on record as “B (does not activate 5HT2A sensor assay in agonist mode)”.
`COc1ccc2c(ccn2CCN(C)C)c1.O=C(O)/C=C/C(=O)O` [Example 4, 2-(5-methoxy-1H-indol-1-yl)-N,N-dimethylethan-1-amine]: in assay [1], the “5HT2A Antagonist mean @ 100 nM (%)” value is given as “C (inhibits 5HT response by <75%)”, the “5HT2A Antagonist mean @ 10 μM (%)” value is “B (inhibits 5HT response by 75% to 100%)” and the “5HT2A Antagonist mean @ 100 μM (%)” value is “B (inhibits 5HT response by 75% to 100%)”. Further, in assay [2], the EC50 was more than 10 µM. In assay [3], the “5HT2A Agonist mean @ 100 nM (%)” value is on record as “B (does not activate 5HT2A sensor assay in agonist mode)”, the “5HT2A Agonist mean @ 10 μM (%)” value is given as “B (does not activate 5HT2A sensor assay in agonist mode)” and the “5HT2A Agonist mean @ 100 μM (%)” value was “A (activates 5HT2A sensor assay in agonist mode)”.
As for `COc1ccc2ccn(CCN(C)C)c2c1` [Example 5, 2-(6-methoxy-1H-indol-1-yl)-N,N-dimethylethan-1-amine], in assay [1], the “5HT2A Antagonist mean @ 100 nM (%)” value is “B (inhibits 5HT response by 75% to 100%)”, the “5HT2A Antagonist mean @ 10 μM (%)” value is recorded as “B (inhibits 5HT response by 75% to 100%)” and the “5HT2A Antagonist mean @ 100 μM (%)” value was “B (inhibits 5HT response by 75% to 100%)”. In addition, the EC50 in assay [2] was less than 10 µM. Moreover, in assay [3], the “5HT2A Agonist mean @ 100 nM (%)” value is given as “B (does not activate 5HT2A sensor assay in agonist mode)”, the “5HT2A Agonist mean @ 10 μM (%)” value is “B (does not activate 5HT2A sensor assay in agonist mode)” and the “5HT2A Agonist mean @ 100 μM (%)” value was “A (activates 5HT2A sensor assay in agonist mode)”.
Take `COc1cccc2ccn(CCN(C)C)c12.O=C(O)/C=C/C(=O)O` [Example 6, 2-(7-methoxy-1H-indol-1-yl)-N,N-dimethylethan-1-amine]: in assay [1], the “5HT2A Antagonist mean @ 100 nM (%)” value is “A (inhibits 5HT response by >100%)”, the “5HT2A Antagonist mean @ 10 μM (%)” value is recorded as “A (inhibits 5HT response by >100%)” and the “5HT2A Antagonist mean @ 100 μM (%)” value was “A (inhibits 5HT response by >100%)”. In assay [2], the EC50 was less than 10 µM. In addition, in assay [3], the “5HT2A Agonist mean @ 100 nM (%)” value is given as “B (does not activate 5HT2A sensor assay in agonist mode)”, the “5HT2A Agonist mean @ 10 μM (%)” value was “B (does not activate 5HT2A sensor assay in agonist mode)” and the “5HT2A Agonist mean @ 100 μM (%)” value is given as “B (does not activate 5HT2A sensor assay in agonist mode)”.
Regarding `COc1ccc2c(ccn2C[C@@H](C)N(C)C)c1` [Example 59, (R)-1-(5-methoxy-1H-indol-1-yl)-N,N-dimethylpropan-2-amine], in assay [1], the “5HT2A Antagonist mean @ 100 nM (%)” value is “B (inhibits 5HT response by 75% to 100%)”, the “5HT2A Antagonist mean @ 10 μM (%)” value is reported as “A (inhibits 5HT response by >100%)” and the “5HT2A Antagonist mean @ 100 μM (%)” value was “A (inhibits 5HT response by >100%)”. For the same compound, in assay [2], the EC50 was more than 10 µM. For the same compound, in assay [3], the “5HT2A Agonist mean @ 100 nM (%)” value is “B (does not activate 5HT2A sensor assay in agonist mode)”, the “5HT2A Agonist mean @ 10 μM (%)” value is reported as “B (does not activate 5HT2A sensor assay in agonist mode)” and the “5HT2A Agonist mean @ 100 μM (%)” value is given as “B (does not activate 5HT2A sensor assay in agonist mode)”.
Consider `C[C@H](Cn1ccc2cc(F)ccc21)N(C)C` [Example 60, (R)-1-(5-fluoro-1H-indol-1-yl)-N,N-dimethylpropan-2-amine], for which, in assay [1], the “5HT2A Antagonist mean @ 100 nM (%)” value was “C (inhibits 5HT response by <75%)”, the “5HT2A Antagonist mean @ 10 μM (%)” value is reported as “B (inhibits 5HT response by 75% to 100%)” and the “5HT2A Antagonist mean @ 100 μM (%)” value is “B (inhibits 5HT response by 75% to 100%)”. Also, in assay [2], the EC50 was more than 10 µM. Moreover, in assay [3], the “5HT2A Agonist mean @ 100 nM (%)” value is “B (does not activate 5HT2A sensor assay in agonist mode)”, the “5HT2A Agonist mean @ 10 μM (%)” value is recorded as “B (does not activate 5HT2A sensor assay in agonist mode)” and the “5HT2A Agonist mean @ 100 μM (%)” value is listed as “A (activates 5HT2A sensor assay in agonist mode)”.
